Results as given in patent US6774141B1, “Calanolide and related antiviral compounds, compositions, and uses thereof” (The United States of America as represented by the …, priority 1992, dated 2004).
Where two headings read alike, the source gives them in different places.

Columns and labels:
HIV-1 [1] = settings: for EC50: read-out: EC50 μM (±S.D.) p24, quadruplicate tests, supernatant viral core protein
CEM-SS cells [2] = assay: XTT assay, direct cytotoxicity upon uninfected CEM-SS target cells; format: cell-based, human
Source text: (§1) Briefly, the procedure was as follows.

CEM-SS cells [3] = assay: BCECF assay, direct cytotoxicity upon uninfected CEM-SS target cells; format: cell-based, human; settings: quadruplicate tests, cytotoxicity to CEM-SS, read-out: IC50 μM (± SD) BCECF
Source text: as §1

HIV-1 [4] = settings: for EC50: read-out: EC50 μM (±S.D.) RT, quadruplicate tests, supernatant reverse transcriptase
HIV-1 [5] = assay: microbe, parasite or virus in culture; settings: for antiviral potency relative to calanolide A: overall of XTT and BCECF assays; for anti-HIV activity in the primary screening assay / inhibition of the cytopathic effects of HIV-1 upon CEM-SS cells: result in words; for inhibition of the cytopathic effects of HIV-1 upon CEM-SS cells: battery of interrelated assays, 6 days
Source text: Pure compounds were initially evaluated for antiviral activity using an XTT-tetrazolium anti-HIV primary screening assay described previously (Boyd, M. R., in AIDS Etiology, Diagnosis, Treatment and Prevention (DeVita V. T., Jr., Hellman S., Rosenberg S. A., eds.), pp 305-319 (Philadelphia: Lippincott, 1988); Gustafson, K. R., et al., J. Med. Chem., 35, 1978-1986 (1992); Weislow, O. S., et al., J. Natl. Cancer Inst., 81, 577-586 (1989); Gulakowski, R. J., et al., J. Virol. Methods, 33, 87-100 (1991)). The CEM-SS human lymphocytic target cell line used in all assays was maintained in RPMI 1640 medium (Gibco, Grand Island, N.Y.), without phenol red, and was supplemented with 5% fetal bovine serum, 2 mM L-glutamine and 50 μg/ml gentamicin (complete medium). Exponentially-growing cells were pelleted and resuspended at a concentration of 2.0×10^5 cells/ml in complete medium. The Haitian variant of HIV, HTLV-IIIRF (3.54×10^6 SFU/ml), was used throughout. Frozen virus stock solutions were thawed immediately before use and resuspended in complete medium to yield […]. The appropriate amounts of the pure compounds for anti-HIV evaluations were dissolved in 100% dimethylsulfoxide (DMSO), then diluted in complete medium to the desired initial concentration (and with the final DMSO content not exceeding 1%). All serial drug dilutions, reagent additions, and plate-to-plate transfers were carried out with an automated Biomek 1000 Workstation (Beckman Instruments, Palo Alto, Calif.).
Briefly, the procedure was as follows. Uninfected CEM-SS cells were plated at a density of 1×10^4 cells in 50 μl of complete medium. Diluted HIV-1 virus was then added to appropriate wells in a volume of 50 μl to yield a multiplicity of infection of 0.6. Appropriate cell, virus and drug controls were incorporated in each experiment; the final volume in each microtiter well was 200 μl. Quadruplicate wells were used for virus-infected cells, and duplicate wells were used for uninfected cells. Plates were incubated at 37° C. in an atmosphere containing 5% CO2 for 6 days. Subsequently, aliquots of cell-free supernatant were removed from each well using the Biomek, and analyzed for reverse transcriptase activity, p24 antigen production and synthesis of infectious virions as described (Gulakowski, R. J., et al., J. Virol. Methods, 33, 87-100 (1991)). Cellular growth or viability then was estimated on the remaining contents of each well using the XTT (Weislow, O. S., et al., J. Natl. Cancer Inst., 81, 577-586 (1989)), BCECF (Rink, T. L., et al., J. Cell. Biol., 95, 189-196 (1982)) and DAPI (McCaffrey, T. A., et al., In Vitro Cell Develop. Biol., 24, 247-252 (1988)) assays as described (Gulakowski, R. J., et al., J. Virol. Methods, 33, 87-100 (1991)).

HIV-1 [6] = settings: for EC50: read-out: EC50 μM (±S.D.) SFU, quadruplicate tests, supernatant syncytium-forming units
[7] = XTT assay, direct cytotoxicity upon uninfected CEM-SS target cells; format: cell-based, human; settings: human, uninfected CEM-SS cells; FIGS. 4A-D, CEM-SS cells, 6 days
Source text: as §1

HIV-1 [8] = assay: microbe, parasite or virus in culture; settings: Human immunodeficiency virus 1, CEM-SS, read-out: EC50 μM (±S.D.) RT
HIV-1 [9] = assay: microbe, parasite or virus in culture; settings: Human immunodeficiency virus 1, CEM-SS, read-out: EC50 μM (±S.D.) SFU
HIV-1 [10] = assay: microbe, parasite or virus in culture; settings: Human immunodeficiency virus 1, CEM-SS, read-out: EC50 μM (±S.D.) p24
HIV = settings: in most patients; cited from earlier work
[11] = quadruplicate tests, cytotoxicity to CEM-SS, read-out: IC50 μM (± SD) XXT
[12] = read-out: EC50 μM (± SD) BCECF, quadruplicate tests, HIV-1 strain RF, CEM-SS
[13] = read-out: EC50 μM (± SD) XXT, quadruplicate tests, HIV-1 strain RF, CEM-SS
[14] = HIV-1-infected CEM-SS, FIG. 4D, result in words
[15] = primary screening assay, cytotoxicity to CEM-SS cells, read-out: IC50
[16] = primary screening assay, HIV-1 in CEM-SS cells

CCCc1cc(=O)oc2c3c(c4c(c12)OC(C)(C)CC4)O[C@@H](C)[C@H](C)[C@@H]3O [DH-costatolide, 7,8-dihydrocostatolide]
EC50 (HIV-1 [1]): 0.24 µM | IC50 (CEM-SS cells [2]; [11]): 18.7 µM | IC50 (CEM-SS cells [3]): 10.3 µM | EC50 (HIV-1 [4]): 0.25 µM | antiviral potency relative to calanolide A (HIV-1 [5]; HIV-1 strain RF, CEM-SS): about ⅓ | EC50 (HIV-1 [5]; [12]): 0.31 µM | EC50 (HIV-1 [5]; [13]): 0.3 µM | EC50 (HIV-1 [6]): 0.19 µM

CCCc1cc(=O)oc2c3c(c4c(c12)OC(C)(C)C=C4)O[C@H](C)[C@@H](C)[C@@H]3O [calanolide A]
production of p24 (HIV-1 [1]; [14]): strikingly inhibited | IC50 (CEM-SS cells [2]; Homo sapiens, quadruplicate tests, cytotoxicity to CEM-SS, read-out: IC50 μM (± SD) XXT): 14.3 µM | IC50 at 6 days [7]: ~13000 nM | EC50 (HIV-1 [8]): 0.07 µM | EC50 (HIV-1 [9]): 0.08 µM | IC50 (CEM-SS cells [3]; Homo sapiens): 14.3 µM | EC50 (HIV-1 [10]): 0.07 µM | production of RT (HIV-1 [4]; [14]): strikingly inhibited | anti-HIV activity in the primary screening assay (HIV-1 [5]; HIV-1 in CEM-SS cells): complete protection | EC50 (HIV-1 [5]; Human immunodeficiency virus 1, CEM-SS, 144 h, read-out: EC50, inhibition of the cytopathic effects of HIV-1): ~0.1 µM | EC50 (HIV-1 [5]; Human immunodeficiency virus 1, CEM-SS, read-out: EC50 μM (± SD) BCECF): 0.16 µM | EC50 (HIV-1 [5]; Human immunodeficiency virus 1, CEM-SS, read-out: EC50 μM (± SD) XXT): 0.13 µM | inhibition of the cytopathic effects of HIV-1 upon CEM-SS cells (HIV-1 [5]): complete inhibition | production of SFU (HIV-1 [6]; [14]): strikingly inhibited

calanolide B
IC50 (CEM-SS cells [2]; [15]): 15 µM | anti-HIV activity in the primary screening assay (HIV-1 [5]; HIV-1 in CEM-SS cells): complete inhibition | inhibition of the cytopathic effects of HIV-1 upon CEM-SS cells (HIV-1 [5]): complete protection | EC50 (HIV-1 [5]; [16]): 0.4 µM

Nc1ccn([C@H]2CC[C@@H](CO)O2)c(=O)n1 [ddC, 2′,3′-dideoxycytidine]
virustatic range, dose (HIV): 0.005-0.25 mg/kg body weight

CCCc1cc(=O)oc2c3c(c4c(c12)OC(C)(C)C=C4)O[C@H](C)[C@@H](C)[C@H]3OC [12-methoxycalanolide B]
anti-HIV activity in the primary screening assay (HIV-1 [5]; HIV-1 in CEM-SS cells): weak but detectable

CCCc1cc(=O)oc2c3c(c4c(c12)OC(C)(C)C=C4)O[C@@H](C)[C@H](C)[C@@H]3O [Costatolide, costatolide]
EC50 (HIV-1 [1]): 0.11 µM | IC50 (CEM-SS cells [2]; [11]): 10 µM | IC50 (CEM-SS cells [3]): 8 µM | EC50 (HIV-1 [4]): 0.12 µM | antiviral potency relative to calanolide A (HIV-1 [5]; HIV-1 strain RF, CEM-SS): about ⅔ | EC50 (HIV-1 [5]; [12]): 0.2 µM | EC50 (HIV-1 [5]; [13]): 0.23 µM | EC50 (HIV-1 [6]): 0.14 µM

CCCc1cc(=O)oc2c3c(c4c(c12)OC(C)(C)C=C4)OC(C)C(C)C3O (stereo not shown) [Compound 6]
anti-HIV activity in the primary screening assay (HIV-1 [5]; HIV-1 in CEM-SS cells): weak but detectable

CCCc1cc(=O)oc2c3c(c4c(c12)OC(C)(C)C=C4)O[C@H](C)[C@@H](C)[C@@H]3OC(C)=O [12-acetoxycalanolide A]
IC50 (CEM-SS cells [2]; [15]): 13 µM | anti-HIV activity in the primary screening assay (HIV-1 [5]; HIV-1 in CEM-SS cells): active | EC50 (HIV-1 [5]; [16]): 2.7 µM

CCCc1cc(=O)oc2c3c(c4c(c12)OC(C)(C)C=C4)O[C@H](C)[C@@H](C)[C@@H]3OC [12-methoxycalanolide A]
anti-HIV activity in the primary screening assay (HIV-1 [5]; HIV-1 in CEM-SS cells): not detectable

CCCc1cc(=O)oc2c3c(c4c(c12)OC(C)(C)CC4)O[C@H](C)[C@@H](C)[C@@H]3O [DH-calanolide A, 7,8-dihydrocalanolide A]
EC50 (HIV-1 [1]): 0.12 µM | IC50 (CEM-SS cells [2]; [11]): 12.5 µM | IC50 (CEM-SS cells [3]): 18.7 µM | EC50 (HIV-1 [4]): 0.13 µM | antiviral potency relative to calanolide A (HIV-1 [5]; HIV-1 strain RF, CEM-SS): about ⅔ | EC50 (HIV-1 [5]; [12]): 0.19 µM | EC50 (HIV-1 [5]; [13]): 0.23 µM | EC50 (HIV-1 [6]): 0.17 µM
